Results taken from patent US9744177B2, “Treatment of male androgen deficiency symptoms or diseases with sex steroid precursor combined with SERM” (ENDORECHERCHE, INC., priority 2014, dated 2017).
“Also recorded” adds a separate entry of the source. Structures can show the parent of a compound that is named as a salt. Where two headings read alike, the source gives them in different places. Marks after values point to notes of the source that are not given here.

Key:
[1] = test system: ovariectomized female rats; assay: 26-week treatment of ovariectomized female rats: lumbar spine BMD, total fat, cholesterol, ALP (Example 3, experiment 2); type: in vivo, Sprague-Dawley rats; details: OVX rats, 26 weeks, serum
Protocol: Ten to twelve week-old female Sprague-Dawley rats (Crl:CD(SD)Br) (Charles River Laboratory, St-Constant, Canada) weighing approximately 220-270 g at start of treatment were used. The animals were acclimatized to the environmental conditions (temperature: 22±3° C.; humidity: 50±20%; 12-h light-12-h dark cycles, lights on at 07:15 h) for at least 1 week before starting the experiments. The animals were housed individually and were allowed free access to tap water and a pelleted certified rodent feed (Lab Diet 5002, Ralston Purina, St-Louis, Mo.). […]
(§1) After 3 months (experiment 1) or 26 weeks (experiment 2) of treatment, individual rats under Isoflurane anesthesia had their whole body skeleton and lumbar spine scanned using dual energy x-ray absorptiometry (DEXA; QDR 4500A, Hologic, Waltham, Mass.) and a Regional High Resolution Scan software. The bone mineral density (BMD) of the lumbar spine (vertebrae L2 to L4) and the total body composition (fat percentage) were determined.
After 3 months (experiment 1) or 26 weeks (experiment 2) of treatment, blood samples were collected at the jugular vein from overnight fasted animals (under Isoflurane anesthesia). […] Serum cholesterol levels and alkaline phospatase activity (ALP) were determined using the Boehringer Mannheim Diagnostic Hitachi 911 Analyzer (Boehringer Mannheim Diagnostic Laboratory Systems).
Data are expressed as means±SEM. […]

[2] = test system: human ZR-75-1 breast tumors; assay: ZR-75-1 tumor growth in ovariectomized nude mice in absence of estrone (agonistic effects); details: no estrone, 200 μg daily, 161 days
[3] = test system: ovariectomized female rats; assay: 3-month treatment of ovariectomized female rats: lumbar spine BMD, total fat, cholesterol, ALP (Example 3, experiment 1); type: in vivo, Sprague-Dawley rats; details: OVX rats, 3 months, serum
Protocol: (§2) Ten to twelve week-old female Sprague-Dawley rats (Crl:CD(SD)Br) (Charles River Laboratory, St-Constant, Canada) weighing approximately 220-270 g at start of treatment were used. The animals were acclimatized to the environmental conditions (temperature: 22±3° C.; humidity: 50±20%; 12-h light-12-h dark cycles, lights on at 07:15 h) for at least 1 week before starting the experiments. The animals were housed individually and were allowed free access to tap water and a pelleted certified rodent feed (Lab Diet 5002, Ralston Purina, St-Louis, Mo.). Experiments were conducted in an animal facility approved by the Canadian Council on Animal Care (CCAC) and the Association for Assessment and Accreditation of Laboratory Animal Care (AAALAC) in accordance with the CCAC Guide for Care and Use of Experimental Animals.
(§3) On Day 1 of the study, the animals of the appropriate groups were bilaterally ovariectomized (OVX) under isoflurane anesthesia. The DHEA was applied topically on the dorsal skin as a solution in 50% ethanol-50% propylene glycol while the other tested compounds were administered as suspension in 0.4% methylcellulose by oral gavage. Treatments were initiated on Day 2 of the study and were performed once daily during 3 months.
as §1
After 3 months (experiment 1) or 26 weeks (experiment 2) of treatment, blood samples were collected at the jugular vein from overnight fasted animals (under Isoflurane anesthesia). Samples were processed for serum preparation and frozen at −80° C. until assay. Serum cholesterol levels and alkaline phospatase activity (ALP) were determined using the Boehringer Mannheim Diagnostic Hitachi 911 Analyzer (Boehringer Mannheim Diagnostic Laboratory Systems).
Data are expressed as means±SEM. Statistical significance was determined according to the multiple-range test of Duncan-Kramer (Kramer 1956).

[4] = test system: estrone-stimulated uterine weight; assay: Antiestrogenic activity: estrone-stimulated uterine weight in ovariectomized mice; type: in vivo, BALB/c mice; details: OVX mice + estrone; any dose used (1, 3 or 10 μg)
Protocol: (§4) Female BALB/c mice (BALB/cAnNCrlBR) weighing 18-20 g were obtained from Charles-River, Inc. (St-Constant, Quebec, Canada) and housed 5 per cage in a temperature (23±1° C.)- and light (12 h light/day, lights on at 7:15)-controlled environment. The mice were fed rodent chow and tap water ad libitum. The animals were ovariectomized (OVX) under Isoflurane anesthesia via bilateral flank incisions and randomly assigned to groups of 10 animals. Ten mice were kept intact as controls.
(§5) In the second experiment (Table 4), TSE 424 was administered orally by gavage once daily at doses of 1, 3, 10 or 30 μg/animal for 9 days, starting 2 days after ovariectomy. In both experiments, to evaluate the antiestrogenic activity, treatment with estrone (E1, 0.06 μg, s.c. injection, twice daily) was started 5 days post-ovariectomy and was administered for a 6 day-period. Compounds were dissolved in ethanol (4% final concentration) and administered in 0.4% methylcellulose. Mice in the intact and OVX control groups received the vehicle alone (4% ETOH-0.4% methylcellulose) during the 9-day period. The animals were killed by exsanguination at the abdominal aorta on the 11th morning following ovariectomy. The uteri and vagina were rapidly dissected, weighed, and kept in 10% buffered formalin for further histologic examination.

[5] = test system: ovariectomized mice; assay: Estrogenic activity: uterine and vaginal weight in ovariectomized mice, compounds alone; type: in vivo, BALB/c mice; details: OVX mice, no estrone; daily oral 1 μg and 10 μg
Protocol: as §4, §5

[6] = test system: serum testosterone; assay: Serum testosterone in male cynomolgus monkeys dosed orally; type: in vivo; details: oral 2.5, 10 or 40 mg acolbifene/day, 13 weeks
Protocol: FIG. 13: Male cynomolgus monkeys were dosed orally with 2.5, 10 or 40 mg acolbifene/day for 13 weeks. Control monkeys received vehicle alone (0.4% methylcellulose). […] Results are expressed as the mean±SEM of 4 monkeys per group. P values (versus control) were calculated using a two-sided t test assuming equality of variances. FIG. 14: […] Control monkeys received vehicle alone (0.4% methylcellulose). […] P values (versus control) were calculated using a two-sided t test assuming equality of variances.

[7] = test system: serum E2 levels; assay: Serum E2 in a premenopausal person with advanced breast cancer on acolbifene; type: in vivo, human; details: 20 mg daily oral, 6 months, from 222 before
[8] = test system: uterine epithelial cells; assay: Thickness of uterine (endometrial) epithelial cells in ovariectomized nude mice; details: no estrone, 200 μg daily
[9] = test system: biochemical parameters of bone metabolism; assay: Treatment of rats with DHEA and EM-800 alone or in combination: biochemical parameters of bone metabolism, serum lipids; type: in vivo; details: rat; for effect on serum cholesterol / effect on serum triglycerides: 9 months, DHEA 10 mg percutaneously, EM-800 75 μg orally, once daily (FIG. 10)
Source text: Data are expressed as the means±SEM. **: p<0.01 experimental versus respective control.
It is thus important to analyze the changes in biochemical parameters of bone metabolism induced by various compounds and treatments in order to gain a better knowledge of their action (Table 2).
It is particularly important to indicate that the combination of DHEA and acolbifene exerted unexpected beneficial effects on important biochemical parameters of bone metabolism. […] Moreover, no effect of DHEA could be detected on daily urinary calcium or phosphorus excretion (Luo, Sourla et al. 1997). EM-800 (prodrug of acolbifene free salt) decreased the urinary hydroxyproline/creatinine ratio by 48% while, similarly to DHEA, no effect of EM 800 (prodrug of acolbifene, free salt) was seen on urinary calcium or phosphorus excretion. EM-800, moreover, had no effect on serum alkaline phosphatase activity, a marker of bone formation while DHEA increased the value of the parameter by about 75% (Luo, Sourla et al. 1997).

[10] = test system: ovariectomized rats; assay: 12-month treatment of ovariectomized rats with DHEA alone or with Flutamide or EM-800: bone histomorphometry, bone markers, serum lipids; type: in vivo, rat; details: OVX rats
[11] = 50 mg daily, 6 months, cited from earlier work
[12] = test system: ovariectomized female rats; assay: 5-week treatment of ovariectomized female rats with SERMs alone or with DHEA: BMD (Example 4); type: in vivo, Sprague-Dawley rats; details: OVX rats, 5 weeks; SERMs 2.5 mg/kg oral, DHEA 80 mg/kg topical
Protocol: as §2
as §3, with “the” for “the other”, “SERMs” for “compounds”, “5 weeks.” for “3 months.”
After 5 weeks of treatment, individual rats under Isoflurane anesthesia had their lumbar spine, femur and tibia scanned using dual energy x-ray absorptiometry (DEXA; QDR 4500A, Hologic, Waltham, Mass.) and a Regional High Resolution Scan software. The bone mineral density (BMD) of the lumbar spine (vertebrae L2 to L4), distal femoral metaphysis (DFM) and proximal tibial metaphysis (PTM) were determined.
Data are expressed as means±SEM. Statistical significance was determined according to the multiple-range test of Duncan-Kramer {Kramer, 1956 #37421.

[13] = 6 months; cited from earlier work

Oc1ccc2c(c1)CC[C@H](c1ccccc1)[C@@H]2c1ccc(OCCN2CCCC2)cc1 (racemic) [lasofoxifene, (−)-cis-(5R,6S)-6-phenyl-5-[4-(2-pyrrolidin-1-ylethoxy)phenyl]-5,6,7,8-tetrahydronaphthalen-2-ol, D-(−)-tartrate salt]
CHOLESTEROL [1]: 0.60 ± 0.02 mmol/L

CC/C(=C(\c1ccccc1)c1ccc(/C=C/C(=O)O)cc1)c1ccccc1 [GW 5638]
effect of compound alone on ZR-75-1 tumor size compared to OVX control [2]: did not significantly change | ALP [3]: 72 ± 6 IU/L

Oc1ccc2c(c1)CC[C@@H](c1ccccc1)[C@H]2c1ccc(OCCN2CCCC2)cc1 (single isomer, unassigned) [inactive enantiomer of lasofoxifene]
inhibitory effect on estrone-stimulated uterine weight [4]: no inhibitory effect | stimulatory effect on uterine weight [5]: no stimulatory effect | stimulatory effect on vaginal weight [5]: no stimulatory effect

CC1=C(c2ccc(O)cc2)[C@H](c2ccc(OCCN3CCCCC3)cc2)Oc2cc(O)ccc21.Cl [EM-652.HCl, (S)-(+)-7-hydroxy-3-(4′-hydroxyphenyl)-4-methyl-2-(4″-(2′″-piperidinoethoxy)phenyl)-2H-1-benzopyran hydrochloride]
serum testosterone levels (FIGS. 13 and 14) [6]: increased serum testosterone levels | effect of compound alone on ZR-75-1 tumor size compared to OVX control ([2]; hydrochloride): did not exert any stimulatory effect; also recorded: did not significantly change | effect of compound alone on ZR-75-1 tumor size compared to OVX control ([2]; listed as Acolbifene, hydrochloride): no effect on tumor growth | ALP [3]: 91 ± 6 IU/L | CHOLESTEROL [3]: 0.87 ± 0.04 mmol/L | serum E2 levels [7]: 2030 pg/mL | height of uterine epithelial cells, % of the OVX control group value [8]: 114% | CHOLESTEROL [1]: 0.98 ± 0.06 mmol/L

CC/C(=C(\c1ccccc1)c1ccc(OCCN(C)C)cc1)c1ccccc1 [tamoxifen, (Z)-2-[4-(1,2-diphenyl-1-butenyl)phenoxy]-N,N-dimethylethanamine]
stimulatory effect on tumor growth (FIG. 15) ([2]; OVX nude mice): approximately 100%

CC1=C(c2ccc(OC(=O)C(C)(C)C)cc2)[C@H](c2ccc(OCCN3CCCCC3)cc2)Oc2cc(OC(=O)C(C)(C)C)ccc21 [EM-800, (S)-(+)-4-[7-(2,2-dimethyl-1-oxopropoxy)-4-methyl-2-[4-[2-(1-piperidinyl)-ethoxy]phenyl]-2H-1-benzopyran-3-yl]-phenyl 2,2-dimethylpropanoate]
effect on serum cholesterol [9]: decreases | effect on serum triglycerides [9]: decreases | URINE HP/Cr (hydroxyproline/creatinine ratio) ([9]; DHEA 10 mg, EM-800 75 μg): 6.81 ± 0.84** μmol/mmol

CN(C)CCOc1ccc(/C(=C(/CCCl)c2ccccc2)c2ccccc2)cc1 [toremifene, (Z)-2-[4-(4-Chloro-1,2-diphenyl-1-butenyl)phenoxy]-N,N-dimethylethanamine]
average tumor size increase over baseline ([2]; OVX nude mice): 86%

CC/C(=C(/c1ccc(OCCN(C)C)cc1)c1cccc(O)c1)c1ccccc1 [droloxifene, (E)-3-[1-[4-[2-(Dimethylamino)ethoxy]phenyl]-2-phenyl-1-butenyl]phenol]
effect of compound alone on ZR-75-1 tumor size compared to OVX control [2]: did not significantly change

C[C@]12CC[C@@H]3c4ccc(O)cc4CC[C@H]3[C@@H]1CC[C@@H]2O [E2, 17β-estradiol]
ALP [3]: 59 ± 4 IU/L

C[C@]12CC[C@H](O)CC1=CC[C@@H]1[C@@H]2CC[C@]2(C)C(=O)CC[C@@H]12 [DHEA, dehydroepiandrosterone]
increase in trabecular bone number compared to ovariectomized controls [10]: 137% | reduction (inhibitory effect) of serum cholesterol [10]: 22% | trabecular bone number [10]: 1.27±0.1 per mm | trabecular bone volume of the tibia [10]: 11.9±0.6% | Alkaline phosphatase ([10]; serum): 201±25 IU/L | CHOLESTEROL ([10]; serum): 1.78 ± 0.16 mmol/L | Triglycerides ([10]; serum): 0.8 ± 0.1 mmol/L | OH-proline/creatinine ([10]; urine): 7.3±1.0 μmol/mmol | decrease of responsiveness of serum insulin to the glucose tolerance test [11]: 13% | improvement in the insulin sensitivity index [11]: 34% | decrease of abdominal subcutaneous fat ([11]; both women and men): 6% | decrease of abdominal visceral fat ([11]; men 65 to 78 years): 7.4% | decrease of abdominal visceral fat ([11]; women 65 to 78 years): 10.2% | DISTAL FEMORAL METAPHYSIS (DFM) BMD [12]: 0.2934 ± 0.0046 g/cm^2 | DISTAL FEMORAL METAPHYSIS (DFM) Prevention of Bone Loss [12]: 71% | LUMBAR SPINE (L2-L4) BMD [12]: 0.2144 ± 0.0028 g/cm^2 | LUMBAR SPINE (L2-L4) Prevention of Bone Loss [12]: 44% | PROXIMAL TIBIAL METAPHYSIS (PFM) BMD [12]: 0.2672 ± 0.0041 g/cm^2 | PROXIMAL TIBIAL METAPHYSIS (PFM) Prevention of Bone Loss [12]: 42% | effect on serum cholesterol [9]: no effect | effect on serum triglycerides [9]: inhibitory effect | decrease of total body fat mass [13]: 1.4 kg | increase of fat-free mass [13]: 0.9 kg

Cl.O=C(c1ccc(OCCN2CCCCC2)cc1)c1c(-c2ccc(O)cc2)sc2cc(O)ccc12 [raloxifene, [2-(4-hydroxyphenyl)-6-hydroxybenzo[b]thien-3-yl][4-[2-(1-piperidinyl)ethoxy]phenyl]-methanone hydrochloride]
effect of compound alone on ZR-75-1 tumor size compared to OVX control [2]: did not significantly change
